This assay has as its target T1, catalytic domain of human PTP1b (residues 1-299) (Homo sapiens, UniProt P18031).
T1 construct: catalytic domain of human PTP1b (residues 1-299); made in house; host or cells: E. coli
T1 sequence (P18031 1-299): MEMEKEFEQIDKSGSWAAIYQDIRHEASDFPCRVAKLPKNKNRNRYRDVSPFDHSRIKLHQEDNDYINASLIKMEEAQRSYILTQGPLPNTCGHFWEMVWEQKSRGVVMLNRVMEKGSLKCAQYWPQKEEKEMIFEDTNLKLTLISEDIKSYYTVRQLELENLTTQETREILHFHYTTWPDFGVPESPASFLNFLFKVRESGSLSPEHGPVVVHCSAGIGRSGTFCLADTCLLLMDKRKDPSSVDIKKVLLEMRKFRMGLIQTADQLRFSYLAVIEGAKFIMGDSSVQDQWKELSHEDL
In words: PTP1b pNPP hydrolysis inhibition assay. The format is biochemical. Particulars: pNPP substrate, 25° C., pH 7.0, three fixed inhibitor concentrations; read-out: Ki Micromolar. How it is done:
The p-nitrophenyl phosphate (pNPP) substrate was purchased from Sigma. PTPase activity was measured at room temperature (25° C.) in a 200 ul reaction mixture with various concentrations of substrate. Reactions began with enzyme addition and were quenched after 2-3 minutes with 1N NaOH. Background hydrolysis of pNPP was measured without addition of enzyme. […] All experiments were performed in 50 mM 3,3-dimethylglutarate buffer (pH 7.0), with 10 mM DTT, 1 mM EDTA, and with the ionic strength adjusted to 0.15 M with NaCl. All solutions were prepared in distilled, deionized water. For initial evaluation of each compound, percent inhibition was determined for two concentrations of compound (for example at 200 uM and 20 uM) at a fixed pNPP concentration.
Percent inhibition was determined following background subtraction of the non-enzymatic hydrolysis rate compared to no inhibitor (DMSO only) controls. Inhibition constants and inhibition patterns were evaluated using the direct curve-fitting program GraFit (Erithacus Software Limited).

As to `NS(=O)(=O)N(c1cccc(-c2scc(N3CC(=O)NS3(=O)=O)c2Cl)c1)C1CCCCC1` [N-{3-[3-chloro-4-(1,1-dioxido-4-oxo-1,2,5-thiadiazolidin-2-yl)-2-thienyl]phenyl}-N-cyclohexylsulfamide], the Ki was 1.7 µM. As to `O=C1CN(c2csc(-c3cccc(NC4CCCCC4)c3)c2Cl)S(=O)(=O)N1` [5-{4-chloro-5-[3-(cyclohexylamino)phenyl]-3-thienyl}-1,2,5-thiadiazolidin-3-one 1,1-dioxide], the Ki turned out to be 14 µM. The figure for `O=C1CN(c2csc(-c3ccccc3)c2)S(=O)(=O)N1` [5-(5-phenyl-3-thienyl)-1,2,5-thiadiazolidin-3-one 1,1-dioxide] is 150 µM. The figure for `O=C1CN(c2csc(-c3cccc(NC4CCCCC4)c3)c2)S(=O)(=O)N1` [5-5-[3-(cyclohexylamino)phenyl]-3-thienyl}-1,2,5-thiadiazolidin-3-one 1,1-dioxide] is 12 µM; for `Cc1c(N2CC(=O)NS2(=O)=O)csc1-c1cccc([N+](=O)[O-])c1` [5-[4-methyl-5-(3-nitrophenyl)-3-thienyll-1,2,5-thiadiazolidin-3-one 1,1-dioxide] it is 34 µM; for `O=C1CN(c2csc(-c3ccccc3)c2Br)S(=O)(=O)N1` [5-(4-bromo-5-phenyl-3-thienyl)-1,2,5-thiadiazolidin-3-one 1,1-dioxide] it is 18 µM. To `CC1C(=O)NS(=O)(=O)N1c1csc(-c2ccccc2)c1` (stereo not shown) [4-methyl-5-(5-phenyl-3-thienyl)-1,2,5-thiadiazolidin-3-one 1,1-dioxide] belongs greater than 1000 µM; to `Cc1c(N2CC(=O)NS2(=O)=O)csc1-c1ccccc1` [5-(4-methyl-5-phenyl-3-thienyl)-1,2,5-thiadiazolidin-3-one 1,1-dioxide], 41 µM. With `Cc1c(N2CC(=O)NS2(=O)=O)csc1-c1cccc(NC2CC(C)(C)CC(C)(C)C2)c1`, the Ki came to 15 µM. For `Cc1c(N2CC(=O)NS2(=O)=O)csc1-c1cccc(NC2CCN(S(=O)(=O)Cc3ccccc3)CC2)c1` [5-[5-(3-{[1-(benzylsulfonyl)piperidine-4-yl]amino}phenyl)-4-methyl-3-thienyl]-1,2,5-thiadiazolidin-3-one 1,1-dioxide], the Ki was found to be 4 µM.

One may read the Ki as the dissociation constant of the complex between target and ligand, obtained from inhibition or displacement.
